Reference: US8841296B2, “Substituted 1, 4-dioxa-8-azaspiro[4,5]decanes useful as fungicides and a process for the preparation thereof” (Council of Scientific and Industrial Research, Anusandhan …, priority 2009, dated 2014)

Key:
grape powdery mildew = assay: Field experiment against grape powdery mildew; format: in vivo, grapevine; conditions: for PDI on Bunches 11 DAIIS / % Disease Control (11 DAIIS): 11 days after 2nd spray; for % Disease Control (11 DAIIS) / % Disease Control (15 DAIIS): over untreated check; for PDI on Bunches 15 DAIIS / % Disease Control (15 DAIIS): 15 days after 2nd spray
Description: A field experiment was conducted on pruned grapevine, in a randomized block design with ten treatments (Table No 1) and three replications. Two sprays were given at an interval of 10 days. The plot size was eight vines per treatment/replication. The spraying was done by Knapsack sprayer using 850 L spray volume/hectare. […] Based on the observations percent incidence was worked out.

grape downy mildew = assay: Field experiment against grape downy mildew; format: in vivo, grapevine
Description: A field experiment was conducted on pruned grapevine, in a randomized block design with ten treatments (Table No. 3) and three replications. Two sprays were given at an interval of 6 days starting at 28 days after pruning. The plot size was ten vines per treatment/replication. The spraying was done by Knapsack sprayer using 1000 L spray volume/hectare. […] Based on the observations, percent disease incidence was worked out. The data was subjected to statistical analysis.

Rhizoctonia solani = assay: Growth inhibition plate assay, R. solani; format: cell-based; conditions: ND = Not Detectable, read-out: Plate assay inhibition, P1 R. solani
Colletotrichum capsici = assay: Growth inhibition plate assay, C. capsici; format: cell-based; conditions: ND = Not Detectable; for inhibition at 25 ppm: Colletotrichum truncatum, read-out: Plate assay inhibition, P2 C. capsici
Drechslera oryzae = assay: Growth inhibition plate assay, D. oryzae; format: cell-based; conditions: ND = Not Detectable; for inhibition at 25 ppm: Bipolaris oryzae, read-out: Plate assay inhibition, P3 D. oryzae, 25 ppm
Fusarium oxysporum = assay: Growth inhibition plate assay, F. oxysporum; format: cell-based; conditions: ND = Not Detectable; for inhibition at 25 ppm: Fusarium oxysporum, read-out: Plate assay inhibition, P4 F. oxysporum
Pyrricularia oryzae = assay: microbe, parasite or virus in culture; format: cell-based; conditions: ND = Not Detectable; for inhibition at 25 ppm: Pyricularia oryzae, read-out: Plate assay inhibition, P5 P. oryzae, 25 ppm
Pythium aphanidermatum = assay: Growth inhibition plate assay, P. aphanidermatum; format: cell-based; conditions: ND = Not Detectable, read-out: Plate assay inhibition, P6 P. aphanidermatum
[1] = system: plant pathogenic fungi (all the test pathogens); format: cell-based; conditions: for fungicidal activity against plant pathogenic fungi: result in words
rose powdery mildew = assay: Field experiment against rose powdery mildew; format: in vivo; conditions: 4 days after spray; for Rose PM % Control: over untreated check
From the text: Two sprays were given at an interval of 4 days. The spraying was done by Foot operated sprayer using 1200 L spray volume/hectare. […] Based on the observations percent incidence was worked out. The data was subjected to statistical analysis.

Magnaporthe grisea = format: cell-based
[2] = 20% EC @ 400 g a.i./ha, 7 days after 2nd spray
[3] = 20% EC @ 400 g a.i./ha, 7 days after 2nd spray, over untreated check
[4] = 20% EC @ 400 g a.i./ha, 10 days after 2nd spray
[5] = 20% EC @ 400 g a.i./ha, 10 days after 2nd spray, over untreated check
[6] = 20% EC @ 800 g a.i./ha, 7 days after 2nd spray
[7] = 20% EC @ 800 g a.i./ha, 7 days after 2nd spray, over untreated check
[8] = 20% EC @ 800 g a.i./ha, 10 days after 2nd spray
[9] = 20% EC @ 800 g a.i./ha, 10 days after 2nd spray, over untreated check

## CO/C=C(/C(=O)OC)c1ccccc1Oc1cc(Oc2ccccc2C#N)ncn1 [Azoxystrobin, reference compound]
Grape powdery mildew; 25 SC @ 212 g a.i./ha
  PDI on Bunches 11 DAIIS: 8.68%
  % Disease Control (11 DAIIS): 70.97%
  PDI on Bunches 15 DAIIS: 5.92%
  % Disease Control (15 DAIIS): 77.34%
Grape downy mildew; 23 SC @ 230 g a.i./ha, 7 days after 2nd spray
  Grape Downy mildew incidence 7 DAIIS: 3.32%
Grape downy mildew; 23 SC @ 230 g a.i./ha, 7 days after 2nd spray, over untreated check
  % Control (7 DAIIS): 80.29%
Grape downy mildew; 23 SC @ 230 g a.i./ha, 10 days after 2nd spray
  Grape Downy mildew incidence 10 DAIIS: 2.7%
Grape downy mildew; 23 SC @ 230 g a.i./ha, 10 days after 2nd spray, over untreated check
  % Control (10 DAIIS): 88.14%

## Clc1cc(Br)ccc1OCC1COC2(CCN(CCc3ccccc3)CC2)O1 (stereo not drawn) [Compound 2, 2-(4-bromo-2-chlorophenoxy)methyl-8-phenethyl-1,4-dioxa-8-azaspiro[4,5]decane]
Rhizoctonia solani
  inhibition at 25 ppm: 90 to 100%
Colletotrichum capsici
  inhibition at 25 ppm: 90 to 100%
Drechslera oryzae
  inhibition at 25 ppm: 90 to 100%
Fusarium oxysporum
  inhibition at 25 ppm: 90 to 100%
Pyrricularia oryzae
  inhibition at 25 ppm: 90 to 100%
Pythium aphanidermatum
  inhibition at 25 ppm: 90 to 100%
[1]
  inhibition against all the test pathogens: 90-100%
  fungicidal activity against plant pathogenic fungi: active against all pathogens
Grape powdery mildew; 20% EC @ 340 g a.i./ha
  PDI on Bunches 11 DAIIS: 12.96%
  % Disease Control (11 DAIIS): 56.67%
  PDI on Bunches 15 DAIIS: 10.23%
  % Disease Control (15 DAIIS): 60.84%
Grape powdery mildew; 20% EC @ 510 g a.i./ha
  PDI on Bunches 11 DAIIS: 13.6%
  % Disease Control (11 DAIIS): 54.53%
  PDI on Bunches 15 DAIIS: 9.6%
  % Disease Control (15 DAIIS): 63.26%
Grape powdery mildew; 20% EC @ 680 g a.i./ha
  PDI on Bunches 11 DAIIS: 12.48%
  % Disease Control (11 DAIIS): 58.27%
  PDI on Bunches 15 DAIIS: 8.9%
  % Disease Control (15 DAIIS): 65.93%
Grape downy mildew; [2]
  Grape Downy mildew incidence 7 DAIIS: comparable with standard check fungicides
Grape downy mildew; 20% EC @ 400 g a.i./ha, 7 days after 2nd spray, listed as Cpd 2
  Grape Downy mildew incidence 7 DAIIS: 4.46%
Grape downy mildew; [3]
  % Control (7 DAIIS): 73.53%
Grape downy mildew; [4]
  Grape Downy mildew incidence 10 DAIIS: 7.58%
Grape downy mildew; [5]
  % Control (10 DAIIS): 66.72%
Grape downy mildew; [6]
  Grape Downy mildew incidence 7 DAIIS: comparable with standard check fungicides
Grape downy mildew; 20% EC @ 800 g a.i./ha, 7 days after 2nd spray, listed as Cpd 2
  Grape Downy mildew incidence 7 DAIIS: 2.77%
Grape downy mildew; [7]
  % Control (7 DAIIS): 83.56%
Grape downy mildew; [8]
  Grape Downy mildew incidence 10 DAIIS: at par with standard check fungicides
Grape downy mildew; 20% EC @ 800 g a.i./ha, 10 days after 2nd spray, listed as Cpd 2
  Grape Downy mildew incidence 10 DAIIS: 5.27%
Grape downy mildew; [9]
  % Control (10 DAIIS): 76.86%
Rose powdery mildew; 20% EC @ 720 g a.i./ha
  Rose PM % incidence 4 DAS: 36.83%
  Rose PM % Control: 28.52%

## c1ccc(CCN2CCC3(CC2)OCC(CN2CCOCC2)O3)cc1 (stereo not drawn) [Compound 3, 2-(morpholin-4-yl)methyl-8-phenethyl-1,4-dioxa-8-azaspiro[4,5]decane]
Rhizoctonia solani
  inhibition at 25 ppm: 70 to 80%
Drechslera oryzae
  inhibition at 25 ppm: 60 to 70%
Fusarium oxysporum
  inhibition at 25 ppm: 70 to 80%
Pyrricularia oryzae
  inhibition at 25 ppm: 40 to 50%

## Clc1ncc(COCC2COC3(CCN(CCc4ccccc4)CC3)O2)s1 (stereo not drawn) [Compound 4, 2-(2-chloro-5-thiazolyl)methoxymethyl-8-phenethyl-1,4-dioxa-8-azaspiro[4,5]decane]
Rhizoctonia solani
  inhibition at 25 ppm: 20 to 30%
Colletotrichum capsici
  inhibition at 25 ppm: 20 to 30%
Fusarium oxysporum
  inhibition at 25 ppm: 30 to 40%
Pyrricularia oryzae
  inhibition at 25 ppm: 30 to 40%
[1]
  inhibition against all the test pathogens: 20-30%

## c1ccc(CCN2CCC3(CC2)OCC(COCc2ccccc2)O3)cc1 (stereo not drawn) [Compound 5, 2-benzyloxymethyl-8-phenethyl-1,4-dioxa-8-azaspiro[4,5]decane]
Rhizoctonia solani
  inhibition at 25 ppm: 40 to 50%
Drechslera oryzae
  inhibition at 25 ppm: 60 to 70%
Fusarium oxysporum
  inhibition at 25 ppm: 40 to 50%
Magnaporthe grisea
  inhibition against M. grisea: 60-70%

## c1ccc(CCN2CCC3(CC2)OCC(CSc2ccccc2)O3)cc1 (stereo not drawn) [Compound 6, 8-phenethyl-2-phenylsulphanylmethyl-1,4-dioxa-8-azaspiro[4,5]decane]
Rhizoctonia solani
  inhibition at 25 ppm: 90 to 100%
Colletotrichum capsici; 25 ppm, listed as C6
  Plate assay inhibition, P2 C. capsici: 60-70%
Colletotrichum capsici
  inhibition at 25 ppm: 60 to 90%
Drechslera oryzae; 25 ppm, listed as C6
  Plate assay inhibition, P3 D. oryzae: 70-80%
Drechslera oryzae
  inhibition at 25 ppm: 60 to 90%
Fusarium oxysporum; 25 ppm, listed as C6
  Plate assay inhibition, P4 F. oxysporum: 70-80%
Fusarium oxysporum
  inhibition at 25 ppm: 60 to 90%
Pyrricularia oryzae; 25 ppm, listed as C6
  Plate assay inhibition, P5 P. oryzae: 80-90%
Pyrricularia oryzae
  inhibition at 25 ppm: 60 to 90%
Pythium aphanidermatum
  inhibition at 25 ppm: 50 to 60%
[1]
  fungicidal activity against plant pathogenic fungi: active against all pathogens
Grape powdery mildew; 20% EC @ 340 g a.i./ha
  PDI on Bunches 11 DAIIS: 11.89%
  % Disease Control (11 DAIIS): 60.24%
  PDI on Bunches 15 DAIIS: 10.6%
  % Disease Control (15 DAIIS): 59.43%
Grape powdery mildew; 20% EC @ 510 g a.i./ha
  % Disease Control (11 DAIIS): 66.26%
  PDI on Bunches 15 DAIIS: 9.1%
  % Disease Control (15 DAIIS): 65.17%
Grape powdery mildew; 20% EC @ 680 g a.i./ha
  % Disease Control (11 DAIIS): 69.6%
  % Disease Control (15 DAIIS): 70.72%
Grape downy mildew; [2]
  Grape Downy mildew incidence 7 DAIIS: 16.14%
Grape downy mildew; [3]
  % Control (7 DAIIS): 4.21%
Grape downy mildew; [4]
  Grape Downy mildew incidence 10 DAIIS: 24.88%
Grape downy mildew; [5]
  % Control (10 DAIIS): 0%
Grape downy mildew; [6]
  Grape Downy mildew incidence 7 DAIIS: 16.91%
Grape downy mildew; [7]
  % Control (7 DAIIS): 0%
Grape downy mildew; [8]
  Grape Downy mildew incidence 10 DAIIS: 17.7%
Grape downy mildew; [9]
  % Control (10 DAIIS): 22.3%
Rose powdery mildew; 20% EC @ 240 g a.i./ha
  Rose PM % incidence 4 DAS: 38.42%
  Rose PM % Control: 25.44%
Rose powdery mildew; 20% EC @ 480 g a.i./ha
  Rose PM % incidence 4 DAS: 29.45%
  Rose PM % Control: 42.84%
Rose powdery mildew; 20% EC @ 720 g a.i./ha
  Rose PM % incidence 4 DAS: 23.21%
  Rose PM % Control: 54.95%

## Fc1ccc(Cl)cc1NCC1COC2(CCN(Cc3cnc(Cl)s3)CC2)O1 (stereo not drawn) [Compound 8, N-(5-chloro-2-fluorophenyl)-N-{8-(2-chloro-5-thiazolyl)methyl-1,4-dioxa-8-aza-spiro[4,5]dec-2-yl}methanamine]
Fusarium oxysporum
  inhibition at 25 ppm: 20 to 30%
Pythium aphanidermatum
  inhibition at 25 ppm: 50 to 60%

## COc1ccc(C(=CC(=O)N2CCOCC2)c2ccc(Cl)cc2)cc1OC [Dimethomorph, reference compound]
Grape downy mildew; 50 WP @ 500 g a.i./ha, 7 days after 2nd spray
  Grape Downy mildew incidence 7 DAIIS: 2.39%
Grape downy mildew; 50 WP @ 500 g a.i./ha, 10 days after 2nd spray
  Grape Downy mildew incidence 10 DAIIS: 2.42%
Grape downy mildew; 500 g/ha, 168 h
  % Control (7 DAIIS): 85.81%
Grape downy mildew; 500 g/ha, 240 h
  % Control (10 DAIIS): 89.37%

## CCCCC(O)(Cn1cncn1)c1ccc(Cl)cc1Cl (stereo not drawn) [Hexaconazole, reference compound]
Grape powdery mildew; 5 E @ 42.50 g a.i./ha
  PDI on Bunches 11 DAIIS: 8.59%
  % Disease Control (11 DAIIS): 71.28%
  PDI on Bunches 15 DAIIS: 4.81%
  % Disease Control (15 DAIIS): 81.59%

## CO/N=C(/C(=O)OC)c1ccccc1COc1ccccc1C [Kresoxim methyl, reference compound]
Grape powdery mildew; 50 SC 425 g a.i./ha
  PDI on Bunches 11 DAIIS: 5.5%
  % Disease Control (11 DAIIS): 81.61%
  PDI on Bunches 15 DAIIS: 3.55%
  % Disease Control (15 DAIIS): 86.41%
